According to patent US9617256B2 (priority 2007, dated 2017):
Values after ≈ are worked out from the molar mass of the structure shown.

Tests used:
[1] = tested on: AECO001 (ATCC25922); test: MIC broth microdilution, AECO001; assay type: cell-based, E. coli; conditions: Escherichia coli, ATCC25922, read-out: MIC AECO001
Summary of the method: (§1)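 Minimum inhibitory concentrations followed CLSI broth microdilution guidelines: cation-adjusted Mueller-Hinton broth, 2-fold serial drug dilutions, final inoculum 3×10^5–7×10^5 CFU/mL, ambient air at 35° C. for 18-24 hours. Quality-control strains and levofloxacin monitored performance.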

[2] = tested on: AECO063 (ATCC25922 bearing an acrAB mutation); test: microbe, parasite or virus in culture; assay type: cell-based, E. coli; conditions: Escherichia coli, ATCC25922, read-out: MIC AECO063
Summary of the method: as §1

[3] = tested on: APAE001 (ATCC27853); test: MIC broth microdilution, APAE001; assay type: cell-based, P. aeruginosa; conditions: Pseudomonas aeruginosa, ATCC27853, read-out: MIC APAE001, APAE001 is ATCC27853
Summary of the method: as §1

[4] = tested on: APAE006 (strain of P. aeruginosa in which all efflux pumps are inactivated); test: microbe, parasite or virus in culture; assay type: cell-based; conditions: Pseudomonas aeruginosa, read-out: MIC APAE006, P. aeruginosa, all efflux pumps inactivated
Summary of the method: (§2)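 CLSI broth microdilution in cation-adjusted Mueller-Hinton broth, final inoculum 3×10^5–7×10^5 CFU/mL, 2-fold drug dilutions, 18-24 hours at 35° C. in ambient air. APAE006 is an efflux-pump-inactivated P. aeruginosa strain. Assay performance monitored with QC strains and levofloxacin.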

[5] = tested on: APAE006 in the presence of 8 micrograms per milliliter of polymyxin B nonapeptide; assay type: cell-based, P. aeruginosa; conditions: in the presence of 8 micrograms per milliliter of polymyxin B nonapeptide
Summary of the method: as §2

[6] = tested on: AABA1060 (clinical isolate of Acinetobacter baumannii); test: MIC broth microdilution, AABA1060; assay type: cell-based; conditions: Acinetobacter baumannii, read-out: MIC AABA1060
Summary of the method: as §1

[7] = tested on: ASAU001 (laboratory strain of S. aureus, ATCC29213); test: MIC broth microdilution, ASAU001; assay type: cell-based; conditions: Staphylococcus aureus, ATCC29213, read-out: MIC ASAU001
Summary of the method: as §1

[8] = tested on: AECO001 HSA AGP; test: MIC broth microdilution, AECO001 HSA AGP; assay type: cell-based, E. coli; conditions: Escherichia coli
Summary of the method: as §1

Row | Compound | MIC [1] [µg/mL] | MIC [2] [µg/mL] | MIC [3] [µg/mL] | MIC [4] [µg/mL] | MIC APAE006 + PMBN [5] | MIC [6] [µg/mL] | MIC [7] [µg/mL] | MIC [8] [µg/mL]
1 | O=C(N[C@H](C(=O)NO)c1ccccc1)c1ccc(/C=C/C#Cc2ccc(CN3CCOCC3)cc2)cc1 [Example 110-11] | < 2 | < 2 | 16 to 64 (≈ 32.3 to 129 µM) | < 2 | A (MIC's of 2.0 μg/mL or less = A) | 16 to 64 (≈ 32.3 to 129 µM) | 16 to 64 (≈ 32.3 to 129 µM) | 2 to 16 (≈ 4.04 to 32.3 µM)
2 | C[C@@H](N)[C@H](NC(=O)c1ccc(C#CC#Cc2cccc(Cl)c2)cc1)C(=O)NO [Example 82-9] | < 2 | < 2 | 2 to 16 (≈ 5.05 to 40.4 µM) | < 2 | A (MIC's of 2.0 μg/mL or less = A) | 2 to 16 (≈ 5.05 to 40.4 µM) | 2 to 16 (≈ 5.05 to 40.4 µM) | 2 to 16 (≈ 5.05 to 40.4 µM)
3 | O=C(N[C@H](C(=O)NO)C1CCS(=O)(=O)CC1)c1ccc(/C=C/C#Cc2ccc(CN3CCOCC3)cc2)cc1 [Example 110-8] | < 2 | < 2 | 2 to 16 (≈ 3.63 to 29 µM) | < 2 | A (MIC's of 2.0 μg/mL or less = A) | 16 to 64 (≈ 29 to 116 µM) | > 64 | 16 to 64 (≈ 29 to 116 µM)
4 | NCC(=O)NCc1ccc(C#Cc2ccc(C(=O)N[C@@H](CN)C(=O)NO)cc2)cc1 [Example 116-1, (S)—N-(3-amino-1-(hydroxyamino)-1-oxopropan-2-yl)-4-((4-((2-aminoacetamido)methyl)phenyl)ethynyl)benzamide] | 16 to 64 (≈ 39.1 to 156 µM) | 16 to 64 (≈ 39.1 to 156 µM) | 2 to 16 (≈ 4.88 to 39.1 µM) | < 2 | A (MIC's of 2.0 μg/mL or less = A) | 16 to 64 (≈ 39.1 to 156 µM) | 16 to 64 (≈ 39.1 to 156 µM) | 16 to 64 (≈ 39.1 to 156 µM)
5 | C[C@@H](N)[C@H](NC(=O)c1ccc(C#C/C=C/c2ccc(CNC3CC3)cc2)cc1)C(=O)NO [Example 102-2] | < 2 | < 2 | 2 to 16 (≈ 4.62 to 37 µM) | < 2 | A (MIC's of 2.0 μg/mL or less = A) | 2 to 16 (≈ 4.62 to 37 µM) | 16 to 64 (≈ 37 to 148 µM) | 2 to 16 (≈ 4.62 to 37 µM)
6 | CC(C)(O)[C@H](NC(=O)c1ccc(C#CC#Cc2ccc(CNC3CC3)cc2)cc1)C(=O)NO [Example 87-3] | < 2 | < 2 | < 2 | < 2 | A (MIC's of 2.0 μg/mL or less = A) | < 2 | 16 to 64 (≈ 35.9 to 144 µM) | < 2
7 | CC(=O)NC[C@H](NC(=O)c1ccc(C#C/C=C/c2ccc(CN3CCOCC3)cc2)cc1)C(=O)NO [Example 98-3, N—((S)-2-acetylamino-1-hydroxycarbamoyl-ethyl)-4-[(E)-4-(4-morpholin-4-ylmethyl-phenyl)-but-3-en-1-ynyl]-benzamide] | < 2 | < 2 | 2 to 16 (≈ 4.08 to 32.6 µM) | < 2 | A (MIC's of 2.0 μg/mL or less = A) | 16 to 64 (≈ 32.6 to 130 µM) | > 64 | < 2
8 | O=C(CNC1CC1)NC[C@H](NC(=O)c1ccc(C#C/C=C/c2ccccc2)cc1)C(=O)NO [Example 105-1, N—[(S)-2-(2-Cyclopropylamino-acetylamino)-1-hydroxycarbamoyl-ethyl]-4-((E)-4-phenyl-but-3-en-1-ynyl)-benzamide] | < 2 | < 2 | 2 to 16 (≈ 4.48 to 35.8 µM) | < 2 | A (MIC's of 2.0 μg/mL or less = A) | 16 to 64 (≈ 35.8 to 143 µM) | 16 to 64 (≈ 35.8 to 143 µM) | 2 to 16 (≈ 4.48 to 35.8 µM)
9 | C[C@@H](N)[C@H](NC(=O)c1ccc(C#CC#Cc2ccccc2Cl)cc1)C(=O)NO [Example 82-10] | < 2 | < 2 | 2 to 16 (≈ 5.05 to 40.4 µM) | < 2 | A (MIC's of 2.0 μg/mL or less = A) | 2 to 16 (≈ 5.05 to 40.4 µM) | 2 to 16 (≈ 5.05 to 40.4 µM) | 2 to 16 (≈ 5.05 to 40.4 µM)
10 | C[C@@H](N)[C@H](NC(=O)c1ccc(/C=C/C#Cc2ccc(C(F)(F)F)cc2)cc1)C(=O)NO [Example 114-6] | < 2 | < 2 | 2 to 16 (≈ 4.64 to 37.1 µM) | 2 to 16 (≈ 4.64 to 37.1 µM) | A (MIC's of 2.0 μg/mL or less = A) | 2 to 16 (≈ 4.64 to 37.1 µM) | 2 to 16 (≈ 4.64 to 37.1 µM) | 2 to 16 (≈ 4.64 to 37.1 µM)
11 | CCNCc1ccc(C#Cc2ccc(C(=O)N[C@H](C(=O)NO)[C@@H](C)N)cc2)cc1 [Example 119-6] | 2 to 16 (≈ 5.07 to 40.6 µM) | < 2 | < 2 | < 2 | A (MIC's of 2.0 μg/mL or less = A) | 16 to 64 (≈ 40.6 to 162 µM) | 16 to 64 (≈ 40.6 to 162 µM) | 2 to 16 (≈ 5.07 to 40.6 µM)
